Measurements from PubChem BioAssay (NCI).
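Briefly, cells in 96-well plates were exposed to five compound concentrations for 48 h, and endpoints were estimated by linear interpolation. TGI marks complete inhibition of growth.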

Legend:
Assay in all cases: NCI-60 cell line screen, 48 h
NCI/ADR-RES ovarian = test system: NCI/ADR-RES ovarian
MDA-N = test system: MDA-N
T-47D breast = test system: T-47D breast
MALME-3M melanoma = test system: MALME-3M melanoma
LOX IMVI melanoma = test system: LOX IMVI melanoma
OVCAR-8 ovarian = test system: OVCAR-8 ovarian
OVCAR-3 ovarian = test system: OVCAR-3 ovarian
TK-10 renal = test system: TK-10 renal
NCI-H522 lung = test system: NCI-H522 lung
SNB-75 CNS = test system: SNB-75 CNS
HOP-62 NSCLC = test system: HOP-62 NSCLC
NCI-H460 lung = test system: NCI-H460 lung
NCI-H23 lung = test system: NCI-H23 lung
HS 578T breast = test system: HS 578T breast
OVCAR-4 ovarian = test system: OVCAR-4 ovarian
NCI-H226 lung = test system: NCI-H226 lung
OVCAR-5 ovarian = test system: OVCAR-5 ovarian
PC-3 prostate = test system: PC-3 prostate
DU-145 prostate = test system: DU-145 prostate
HT29 colon = test system: HT29 colon
SK-OV-3 ovarian = test system: SK-OV-3 ovarian
RPMI-8226 leukemia = test system: RPMI-8226 leukemia
MCF7 breast = test system: MCF7 breast
SK-MEL-5 melanoma = test system: SK-MEL-5 melanoma
ACHN renal = test system: ACHN renal
UO-31 renal = test system: UO-31 renal
MDA-MB-435 = test system: MDA-MB-435
SF-295 CNS = test system: SF-295 CNS
SR leukemia = test system: SR leukemia
UACC-62 melanoma = test system: UACC-62 melanoma
HCT-15 colon = test system: HCT-15 colon
SN12C renal = test system: SN12C renal
IGROV1 ovarian = test system: IGROV1 ovarian
A549 NSCLC = test system: A549 NSCLC
RXF 393 renal = test system: RXF 393 renal
BT-549 breast = test system: BT-549 breast
HL-60(TB) leukemia = test system: HL-60(TB) leukemia
HOP-92 NSCLC = test system: HOP-92 NSCLC
SNB-19 CNS = test system: SNB-19 CNS
CAKI-1 renal = test system: CAKI-1 renal
UACC-257 melanoma = test system: UACC-257 melanoma
SF-268 CNS = test system: SF-268 CNS
HCT-116 colon = test system: HCT-116 colon
786-0 renal = test system: 786-0 renal
SW-620 colon = test system: SW-620 colon
CCRF-CEM leukemia = test system: CCRF-CEM leukemia
HCC-2998 colon = test system: HCC-2998 colon
U251 CNS = test system: U251 CNS
COLO 205 colon = test system: COLO 205 colon
SK-MEL-2 melanoma = test system: SK-MEL-2 melanoma
MOLT-4 leukemia = test system: MOLT-4 leukemia
A498 renal = test system: A498 renal
MDA-MB-231 breast = test system: MDA-MB-231 breast
SF-539 CNS = test system: SF-539 CNS
SK-MEL-28 melanoma = test system: SK-MEL-28 melanoma
KM12 colon = test system: KM12 colon
EKVX NSCLC = test system: EKVX NSCLC
M14 melanoma = test system: M14 melanoma
K-562 leukemia = test system: K-562 leukemia

COC(=O)C1CC23CCCN4CCC5(c6ccccc6N(C=O)C15CC2)C43 (stereo unspecified)
TGI (NCI/ADR-RES ovarian): > 100 µM | TGI (MDA-N): > 100 µM | TGI (T-47D breast): > 100 µM | TGI (MALME-3M melanoma): > 100 µM | TGI (LOX IMVI melanoma): > 100 µM | TGI (OVCAR-8 ovarian): > 100 µM | TGI (OVCAR-3 ovarian): > 100 µM | TGI (TK-10 renal): > 100 µM | TGI (NCI-H522 lung): > 100 µM | TGI (SNB-75 CNS): > 100 µM | TGI (HOP-62 NSCLC): > 100 µM | TGI (NCI-H460 lung): > 100 µM | TGI (NCI-H23 lung): > 100 µM | TGI (HS 578T breast): > 100 µM | TGI (OVCAR-4 ovarian): > 100 µM | TGI (NCI-H226 lung): > 100 µM | TGI (OVCAR-5 ovarian): > 100 µM | TGI (PC-3 prostate): > 100 µM | TGI (DU-145 prostate): > 100 µM | TGI (HT29 colon): > 100 µM | TGI (SK-OV-3 ovarian): > 100 µM | TGI (RPMI-8226 leukemia): > 100 µM | TGI (MCF7 breast): > 100 µM | TGI (SK-MEL-5 melanoma): > 100 µM | TGI (ACHN renal): > 100 µM | TGI (UO-31 renal): > 100 µM | TGI (MDA-MB-435): > 100 µM | TGI (SF-295 CNS): > 100 µM | TGI (SR leukemia): > 100 µM | TGI (UACC-62 melanoma): > 100 µM | TGI (HCT-15 colon): > 100 µM | TGI (SN12C renal): > 100 µM | TGI (IGROV1 ovarian): > 100 µM | TGI (A549 NSCLC): > 100 µM | TGI (RXF 393 renal): > 100 µM | TGI (BT-549 breast): > 100 µM | TGI (HL-60(TB) leukemia): > 100 µM | TGI (HOP-92 NSCLC): > 100 µM | TGI (SNB-19 CNS): > 100 µM | TGI (CAKI-1 renal): > 100 µM | TGI (UACC-257 melanoma): > 100 µM | TGI (SF-268 CNS): > 100 µM | TGI (HCT-116 colon): > 100 µM | TGI (786-0 renal): > 100 µM | TGI (SW-620 colon): > 100 µM | TGI (CCRF-CEM leukemia): > 100 µM | TGI (HCC-2998 colon): > 100 µM | TGI (U251 CNS): > 100 µM | TGI (COLO 205 colon): > 100 µM | TGI (SK-MEL-2 melanoma): > 100 µM | TGI (MOLT-4 leukemia): > 100 µM | TGI (A498 renal): > 100 µM | TGI (MDA-MB-231 breast): > 100 µM | TGI (SF-539 CNS): > 100 µM | TGI (SK-MEL-28 melanoma): > 100 µM | TGI (KM12 colon): > 100 µM | TGI (EKVX NSCLC): > 100 µM | TGI (M14 melanoma): > 100 µM

Cc1ccc(C2=Nn3c(nc4sc(C)c(C)c4c3=O)SC2)cc1
TGI (NCI/ADR-RES ovarian): > 100 µM | TGI (MDA-N): > 100 µM | TGI (T-47D breast): > 100 µM | TGI (MALME-3M melanoma): > 100 µM | TGI (LOX IMVI melanoma): > 100 µM | TGI (OVCAR-8 ovarian): > 100 µM | TGI (OVCAR-3 ovarian): > 100 µM | TGI (TK-10 renal): 85.3 µM | TGI (NCI-H522 lung): > 100 µM | TGI (SNB-75 CNS): > 100 µM | TGI (HOP-62 NSCLC): > 100 µM | TGI (NCI-H460 lung): > 100 µM | TGI (NCI-H23 lung): > 100 µM | TGI (HS 578T breast): > 100 µM | TGI (OVCAR-4 ovarian): > 100 µM | TGI (NCI-H226 lung): > 100 µM | TGI (OVCAR-5 ovarian): > 100 µM | TGI (PC-3 prostate): > 100 µM | TGI (DU-145 prostate): > 100 µM | TGI (HT29 colon): > 100 µM | TGI (SK-OV-3 ovarian): > 100 µM | TGI (RPMI-8226 leukemia): > 100 µM | TGI (MCF7 breast): > 100 µM | TGI (SK-MEL-5 melanoma): > 100 µM | TGI (ACHN renal): > 100 µM | TGI (UO-31 renal): > 100 µM | TGI (MDA-MB-435): > 100 µM | TGI (SF-295 CNS): > 100 µM | TGI (SR leukemia): > 100 µM | TGI (UACC-62 melanoma): > 100 µM | TGI (HCT-15 colon): > 100 µM | TGI (SN12C renal): > 100 µM | TGI (IGROV1 ovarian): > 100 µM | TGI (A549 NSCLC): > 100 µM | TGI (RXF 393 renal): > 100 µM | TGI (BT-549 breast): > 100 µM | TGI (HL-60(TB) leukemia): > 100 µM | TGI (HOP-92 NSCLC): > 100 µM | TGI (CAKI-1 renal): > 100 µM | TGI (UACC-257 melanoma): > 100 µM | TGI (SF-268 CNS): > 100 µM | TGI (HCT-116 colon): > 100 µM | TGI (786-0 renal): > 100 µM | TGI (SW-620 colon): > 100 µM | TGI (HCC-2998 colon): > 100 µM | TGI (U251 CNS): > 100 µM | TGI (COLO 205 colon): > 100 µM | TGI (MOLT-4 leukemia): > 100 µM | TGI (A498 renal): > 100 µM | TGI (MDA-MB-231 breast): > 100 µM | TGI (SF-539 CNS): > 100 µM | TGI (SK-MEL-28 melanoma): > 100 µM | TGI (K-562 leukemia): > 100 µM | TGI (KM12 colon): > 100 µM | TGI (EKVX NSCLC): > 100 µM

Cc1ccc([N+](=O)[O-])cc1S(=O)(=O)Nc1ccc(C2=NOC(c3ccco3)C2)cc1 (stereo unspecified)
TGI (NCI/ADR-RES ovarian): 52.6 µM | TGI (MDA-N): 31.5 µM | TGI (T-47D breast): 89.4 µM | TGI (MALME-3M melanoma): 53.5 µM | TGI (LOX IMVI melanoma): 40.2 µM | TGI (OVCAR-8 ovarian): > 100 µM | TGI (OVCAR-3 ovarian): 30.7 µM | TGI (TK-10 renal): > 100 µM | TGI (NCI-H522 lung): 32.7 µM | TGI (SNB-75 CNS): 35.7 µM | TGI (HOP-62 NSCLC): 30.8 µM | TGI (NCI-H460 lung): 37.2 µM | TGI (NCI-H23 lung): 37.4 µM | TGI (HS 578T breast): > 100 µM | TGI (OVCAR-4 ovarian): 32.7 µM | TGI (NCI-H226 lung): 39.6 µM | TGI (OVCAR-5 ovarian): 52.2 µM | TGI (PC-3 prostate): 40.5 µM | TGI (DU-145 prostate): 39.3 µM | TGI (HT29 colon): 56 µM | TGI (SK-OV-3 ovarian): 97.4 µM | TGI (RPMI-8226 leukemia): 96.8 µM | TGI (MCF7 breast): 35.5 µM | TGI (SK-MEL-5 melanoma): 27.7 µM | TGI (ACHN renal): 49 µM | TGI (UO-31 renal): 32.8 µM | TGI (MDA-MB-435): 11.8 µM | TGI (SF-295 CNS): 46.5 µM | TGI (SR leukemia): 23.8 µM | TGI (UACC-62 melanoma): 27.1 µM | TGI (HCT-15 colon): 32 µM | TGI (SN12C renal): 52.6 µM | TGI (IGROV1 ovarian): 84.4 µM | TGI (A549 NSCLC): 59.7 µM | TGI (RXF 393 renal): 23.3 µM | TGI (BT-549 breast): 39.2 µM | TGI (HL-60(TB) leukemia): 54.7 µM | TGI (HOP-92 NSCLC): 88.9 µM | TGI (SNB-19 CNS): 37.9 µM | TGI (CAKI-1 renal): 70.4 µM | TGI (UACC-257 melanoma): 39.1 µM | TGI (SF-268 CNS): 97.1 µM | TGI (HCT-116 colon): 31.9 µM | TGI (786-0 renal): 34.9 µM | TGI (SW-620 colon): 58.9 µM | TGI (CCRF-CEM leukemia): > 100 µM | TGI (HCC-2998 colon): 31.9 µM | TGI (COLO 205 colon): 80.9 µM | TGI (SK-MEL-2 melanoma): 33.8 µM | TGI (MOLT-4 leukemia): 46.6 µM | TGI (A498 renal): 34.6 µM | TGI (MDA-MB-231 breast): 33.1 µM | TGI (SF-539 CNS): 68.3 µM | TGI (SK-MEL-28 melanoma): 43.5 µM | TGI (K-562 leukemia): 59.3 µM | TGI (KM12 colon): 24.7 µM | TGI (EKVX NSCLC): 61.9 µM | TGI (M14 melanoma): 32.8 µM
